Data: the NIST ThermoML archive (doi:10.1021/je049671t)

Test: xn = mol fraction of the nth substance listed
Conditions: Liquid, Vibrating tube method

CC(C)C [2-methylpropane] + CCC
Conditions	mass density [kg/m3]
240 K, 398.2 kPa, x2 = 0.25	608.19
240 K, 475.1 kPa, x2 = 0.25	608.27
240 K, 529.1 kPa, x2 = 0.75	584.35
240 K, 1000.1 kPa, x2 = 0.25	608.87
240 K, 1024.1 kPa, x2 = 0.75	584.98
240 K, 1473.4 kPa, x2 = 0.75	585.53
240 K, 1505.9 kPa, x2 = 0.25	609.45
240 K, 2000.7 kPa, x2 = 0.75	586.19
240 K, 2004.5 kPa, x2 = 0.25	610.02
240 K, 2531.8 kPa, x2 = 0.75	586.84
240 K, 2533 kPa, x2 = 0.25	610.61
240 K, 3006.4 kPa, x2 = 0.75	587.4
240 K, 3028.4 kPa, x2 = 0.25	611.15
240 K, 3537.9 kPa, x2 = 0.25	611.73
240 K, 3545.4 kPa, x2 = 0.75	588.06
240 K, 4012.9 kPa, x2 = 0.75	588.63
240 K, 4027.7 kPa, x2 = 0.25	612.28
240 K, 4515.3 kPa, x2 = 0.75	589.21
240 K, 4519.1 kPa, x2 = 0.25	612.81
240 K, 4996.8 kPa, x2 = 0.75	589.79
240 K, 5030.4 kPa, x2 = 0.25	613.37
240 K, 5496.4 kPa, x2 = 0.75	590.37
240 K, 5533.4 kPa, x2 = 0.25	613.91
240 K, 6009 kPa, x2 = 0.75	590.98
240 K, 6033 kPa, x2 = 0.25	614.45
240 K, 6541 kPa, x2 = 0.75	591.59
240 K, 6541.5 kPa, x2 = 0.25	615
240 K, 6969.5 kPa, x2 = 0.75	592.1
240 K, 6987.7 kPa, x2 = 0.25	615.48
250 K, 515.5 kPa, x2 = 0.499	584.94
250 K, 1014.4 kPa, x2 = 0.499	585.61
250 K, 1511.1 kPa, x2 = 0.499	586.26
250 K, 2027.5 kPa, x2 = 0.499	586.95
250 K, 2489.8 kPa, x2 = 0.499	587.55
250 K, 3012.9 kPa, x2 = 0.499	588.23
250 K, 3492.5 kPa, x2 = 0.499	588.84
250 K, 3995.9 kPa, x2 = 0.499	589.47
250 K, 4532.5 kPa, x2 = 0.499	590.12
250 K, 5042.2 kPa, x2 = 0.499	590.74
250 K, 5484.6 kPa, x2 = 0.499	591.29
250 K, 5996.5 kPa, x2 = 0.499	591.9
250 K, 6509.5 kPa, x2 = 0.499	592.48
250 K, 6818.8 kPa, x2 = 0.499	592.84
260 K, 251.9 kPa, x2 = 0.75	560.57
260 K, 521.1 kPa, x2 = 0.25	586.55
260 K, 527 kPa, x2 = 0.75	561.44
260 K, 990.2 kPa, x2 = 0.25	587.2
260 K, 1026.1 kPa, x2 = 0.75	562.22
260 K, 1481.6 kPa, x2 = 0.25	587.88
260 K, 1524.1 kPa, x2 = 0.75	563.04
260 K, 2004.4 kPa, x2 = 0.25	588.63
260 K, 2030.6 kPa, x2 = 0.75	563.8
260 K, 2504.8 kPa, x2 = 0.25	589.32
260 K, 2508.8 kPa, x2 = 0.75	564.52
260 K, 2995 kPa, x2 = 0.25	589.98
260 K, 3035.5 kPa, x2 = 0.75	565.31
260 K, 3494.1 kPa, x2 = 0.75	566
260 K, 3517.2 kPa, x2 = 0.25	590.65
260 K, 3986.7 kPa, x2 = 0.25	591.2
260 K, 4039.9 kPa, x2 = 0.75	566.81
260 K, 4476.3 kPa, x2 = 0.25	591.87
260 K, 4527.2 kPa, x2 = 0.75	567.5
260 K, 4968.6 kPa, x2 = 0.75	568.07
260 K, 4976.3 kPa, x2 = 0.25	592.53
260 K, 5537.1 kPa, x2 = 0.75	568.72
260 K, 5550.8 kPa, x2 = 0.25	593.3
260 K, 6051.9 kPa, x2 = 0.25	593.96
260 K, 6474.3 kPa, x2 = 0.25	594.47
260 K, 6513.6 kPa, x2 = 0.75	570.1
260 K, 6922.9 kPa, x2 = 0.75	570.57
260 K, 7006.2 kPa, x2 = 0.25	595.15
280 K, 467.2 kPa, x2 = 0.499	549.36
280 K, 478.7 kPa, x2 = 0.75	535.35
280 K, 500.3 kPa, x2 = 0.25	562.94
280 K, 952.8 kPa, x2 = 0.499	550.3
280 K, 990.6 kPa, x2 = 0.75	536.42
280 K, 1004.7 kPa, x2 = 0.25	563.86
280 K, 1462.8 kPa, x2 = 0.25	564.67
280 K, 1514 kPa, x2 = 0.499	551.39
280 K, 1517.2 kPa, x2 = 0.75	537.51
280 K, 2007.8 kPa, x2 = 0.25	565.62
280 K, 2007.8 kPa, x2 = 0.499	552.34
280 K, 2029.6 kPa, x2 = 0.75	538.54
280 K, 2489.1 kPa, x2 = 0.499	553.22
280 K, 2510.3 kPa, x2 = 0.75	539.5
280 K, 2513.6 kPa, x2 = 0.25	566.51
280 K, 2999.1 kPa, x2 = 0.25	567.36
280 K, 3019.4 kPa, x2 = 0.75	540.5
280 K, 3022.9 kPa, x2 = 0.499	554.21
280 K, 3488.8 kPa, x2 = 0.25	568.19
280 K, 3519.6 kPa, x2 = 0.499	555.1
280 K, 3522.3 kPa, x2 = 0.75	541.47
280 K, 3992 kPa, x2 = 0.499	555.95
280 K, 3992.4 kPa, x2 = 0.25	569.03
280 K, 4026.3 kPa, x2 = 0.75	542.43
280 K, 4516.8 kPa, x2 = 0.25	569.91
280 K, 4518.6 kPa, x2 = 0.499	556.87
280 K, 4544.4 kPa, x2 = 0.75	543.38
280 K, 4965.2 kPa, x2 = 0.75	544.17
280 K, 4979.1 kPa, x2 = 0.25	570.66
280 K, 5014 kPa, x2 = 0.499	557.72
280 K, 5482.8 kPa, x2 = 0.499	558.54
280 K, 5485 kPa, x2 = 0.25	571.47
280 K, 5530.9 kPa, x2 = 0.75	545.19
280 K, 5989.4 kPa, x2 = 0.25	572.28
280 K, 6012.9 kPa, x2 = 0.75	546.05
280 K, 6027 kPa, x2 = 0.499	559.46
280 K, 6488.2 kPa, x2 = 0.75	546.89
280 K, 6525.9 kPa, x2 = 0.499	560.31
280 K, 6532.5 kPa, x2 = 0.25	573.13
280 K, 6931.1 kPa, x2 = 0.75	547.66
280 K, 6938.9 kPa, x2 = 0.499	560.98
280 K, 6965.6 kPa, x2 = 0.25	573.82
280 K, 6968.2 kPa, x2 = 0.25	573.78
300 K, 824.3 kPa, x2 = 0.75	507.35
300 K, 996.8 kPa, x2 = 0.499	523.82
300 K, 1001.6 kPa, x2 = 0.25	538.53
300 K, 1503.7 kPa, x2 = 0.25	539.71
300 K, 1519.6 kPa, x2 = 0.499	525.17
300 K, 1534 kPa, x2 = 0.75	509.38
300 K, 2006.6 kPa, x2 = 0.25	540.87
300 K, 2026.1 kPa, x2 = 0.499	526.45
300 K, 2028.3 kPa, x2 = 0.75	510.77
300 K, 2493.2 kPa, x2 = 0.75	512.04
300 K, 2510.6 kPa, x2 = 0.25	542.01
300 K, 2530.4 kPa, x2 = 0.499	527.7
300 K, 3014.6 kPa, x2 = 0.25	543.13
300 K, 3028.7 kPa, x2 = 0.75	513.47
300 K, 3043.4 kPa, x2 = 0.499	528.93
300 K, 3486.8 kPa, x2 = 0.499	529.95
300 K, 3488.8 kPa, x2 = 0.25	544.16
300 K, 3519.2 kPa, x2 = 0.75	514.75
300 K, 3995.5 kPa, x2 = 0.499	531.16
300 K, 3996.7 kPa, x2 = 0.75	515.97
300 K, 4012 kPa, x2 = 0.25	545.28
300 K, 4467.1 kPa, x2 = 0.75	517.17
300 K, 4483.4 kPa, x2 = 0.25	546.25
300 K, 4503.6 kPa, x2 = 0.499	532.34

mass density [kg/m3]
Conditions	240 K	250 K	260 K	280 K
x2 = 0.25	607.81	–	585.98	562.49
x2 = 0.499	–	584.44	–	549.15
x2 = 0.75	583.82	–	560.96	535.32
